Measurements published in article PMC9343605, “Structural insights into ligand recognition and selectivity of somatostatin receptors” (Cell Research, 2022).
Each block holds one compound with its values, some of them ahead of it.

Key:
[1] = system: SSTR4; experiment: Whole cell binding assay, SSTR4, competition with 125I-Tyr11-SST14, CHO-K1; design: species or system human; details: IC50(mutant)/IC50(WT)
Description: (§1) For SSTR2 and SSTR4, CHO-K1 cells were cultured in F12 medium with 10% FBS and seeded at a density of 30,000 cells/well in Isoplate-96 plates (PerkinElmer). Twenty-four hours after transfection with the WT or mutant SSTR2/SSTR4, CHO-K1 cells were washed twice and incubated with blocking buffer (F12 supplemented with 25 mM HEPES and 0.1% (w/v) BSA, pH 7.4) for 2 h at 37 °C. […] Following incubation, cells were washed three times with ice-cold PBS and lysed by 50 μL lysis buffer (PBS supplemented with 20 mM Tris-HCl, 1% Triton X-100, pH 7.4). The radioactivity was subsequently counted (counts/min, CPM) in a scintillation counter (MicroBeta[2] Plate Counter, PerkinElmer) using a scintillation cocktail (OptiPhaseSuperMix, PerkinElmer). Data were analyzed by nonlinear regression using GraphPad PRISM 8.
(§2) aMutants represent that all mutations were introduced separately into the WT receptors
and expressed in CHO K1 cells.
(§3) bThe IC50 ratio was shown as IC50(mutant)/IC50(WT), indicating the shift between the WT
(§4) and mutant curves, reflecting the effect of the mutations on ligand binding.
(§5) cData are shown as mean ± S.E.M. form at least three independent experiments
(§6) performed in technical triplicate. One-way ANOVA was performed followed by
(§7) Dunnett’s post-test and compared with WT.
(§8) d The span is defined as the window between the maximal agonists response (Emax) and
(§9) e Sample size; the number of independent experiments performed in technical triplicate.

[2] = target: SSTR4 (Homo sapiens, UniProt P31391, V264F); experiment: as above; design: expressed in transfected cells; details: Construct 4 SSTR4, mean ± SEM
Sequence of SSTR4 (Homo sapiens, UniProt P31391, V264F) (P31391 1-328 V264F): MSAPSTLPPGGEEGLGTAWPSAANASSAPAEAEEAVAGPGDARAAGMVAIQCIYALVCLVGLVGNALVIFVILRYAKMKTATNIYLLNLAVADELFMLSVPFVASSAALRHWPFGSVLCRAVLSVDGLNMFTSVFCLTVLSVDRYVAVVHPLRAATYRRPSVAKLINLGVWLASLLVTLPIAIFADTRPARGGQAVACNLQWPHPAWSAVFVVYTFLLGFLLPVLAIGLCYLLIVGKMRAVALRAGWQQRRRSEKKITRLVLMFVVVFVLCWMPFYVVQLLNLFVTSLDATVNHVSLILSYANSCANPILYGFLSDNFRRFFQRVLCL
Description: as §1, §2
and expressed in CHO K1 cells.
as §3, §4, §5, §6, §7, §8, §9

[3] = target: SSTR4 (Homo sapiens, UniProt P31391, Q279A); experiment: as above; design: expressed in transfected cells; details: SSTR4 mutant Q279^6.55A; mean ± SEM
Sequence of SSTR4 (Homo sapiens, UniProt P31391, Q279A) (P31391 whole entry Q279A): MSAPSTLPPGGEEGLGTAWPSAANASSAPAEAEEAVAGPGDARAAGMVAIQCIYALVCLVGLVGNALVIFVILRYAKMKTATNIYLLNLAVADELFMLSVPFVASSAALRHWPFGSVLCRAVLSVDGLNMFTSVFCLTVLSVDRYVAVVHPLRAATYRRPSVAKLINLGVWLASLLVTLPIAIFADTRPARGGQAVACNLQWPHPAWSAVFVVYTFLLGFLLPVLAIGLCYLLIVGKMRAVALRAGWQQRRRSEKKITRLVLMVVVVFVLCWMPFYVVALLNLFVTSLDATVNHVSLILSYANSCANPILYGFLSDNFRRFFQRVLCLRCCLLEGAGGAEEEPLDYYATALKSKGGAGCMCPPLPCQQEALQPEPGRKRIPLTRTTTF
Description: as §1, §2
and expressed in CHO K1 cells.
as §3, §4, §5, §6, §7, §8, §9

[4] = target: SSTR4 (Homo sapiens, UniProt P31391, Y301A); experiment: as above; design: expressed in transfected cells; details: SSTR4 mutant Y301^7.43A; mean ± SEM
Sequence of SSTR4 (Homo sapiens, UniProt P31391, Y301A) (P31391 whole entry Y301A): as the sequence (P31391 whole entry Q279A) above, with A279Q, Y301A counted along it
Description: as §1, §2
and expressed in CHO K1 cells.
as §3, §4, §5, §6, §7, §8, §9

[5] = target: SSTR4 (Homo sapiens, UniProt P31391, Y276A); experiment: as above; design: expressed in transfected cells; details: SSTR4 mutant Y276^6.52A; mean ± SEM
Sequence of SSTR4 (Homo sapiens, UniProt P31391, Y276A) (P31391 whole entry Y276A): as the sequence (P31391 whole entry Q279A) above, with Y276A, A279Q counted along it
Description: as §1, §2
and expressed in CHO K1 cells.
as §3, §4, §5, §6, §7, §8, §9

[6] = target: SSTR4 (Homo sapiens, UniProt P31391); experiment: as above; design: expressed in transfected cells; details: WT SSTR4, mean ± SEM
Sequence of SSTR4 (Homo sapiens, UniProt P31391) (P31391 whole entry): as the sequence (P31391 whole entry Q279A) above, with A279Q counted along it
Description: as §1, §2
and expressed in CHO K1 cells.
as §3, §4, §5, §6, §7, §8, §9

[7] = target: SSTR4 (Homo sapiens, UniProt P31391, F275A); experiment: as above; design: expressed in transfected cells; details: SSTR4 mutant F275^6.51A; mean ± SEM
Sequence of SSTR4 (Homo sapiens, UniProt P31391, F275A) (P31391 whole entry F275A): as the sequence (P31391 whole entry Q279A) above, with F275A, A279Q counted along it
Description: as §1, §2
and expressed in CHO K1 cells.
as §3, §4, §5, §6, §7, §8, §9

[8] = target: SSTR4 (Homo sapiens, UniProt P31391, M130A); experiment: as above; design: expressed in transfected cells; details: SSTR4 mutant M130^3.36A; mean ± SEM
Sequence of SSTR4 (Homo sapiens, UniProt P31391, M130A) (P31391 whole entry M130A): as the sequence (P31391 whole entry Q279A) above, with M130A, A279Q counted along it
Description: as §1, §2
and expressed in CHO K1 cells.
as §3, §4, §5, §6, §7, §8, §9

[9] = target: SSTR4 (Homo sapiens, UniProt P31391, D126A); experiment: as above; design: expressed in transfected cells; details: SSTR4 mutant D126^3.32A; mean ± SEM
Sequence of SSTR4 (Homo sapiens, UniProt P31391, D126A) (P31391 whole entry D126A): as the sequence (P31391 whole entry Q279A) above, with D126A, A279Q counted along it
Description: as §1, §2
and expressed in CHO K1 cells.
as §3, §4, §5, §6, §7, §8, §9

[10] = target: SSTR4 (Homo sapiens, UniProt P31391, N199A); experiment: as above; design: expressed in transfected cells; details: SSTR4 mutant N199^ECL2A; mean ± SEM
Sequence of SSTR4 (Homo sapiens, UniProt P31391, N199A) (P31391 whole entry N199A): as the sequence (P31391 whole entry Q279A) above, with N199A, A279Q counted along it
Description: as §1, §2
and expressed in CHO K1 cells.
as §3, §4, §5, §6, §7, §8, §9

[11] = target: SSTR4 (Homo sapiens, UniProt P31391, T215A); experiment: as above; design: expressed in transfected cells; details: SSTR4 mutant T215^5.42A; mean ± SEM
Sequence of SSTR4 (Homo sapiens, UniProt P31391, T215A) (P31391 whole entry T215A): as the sequence (P31391 whole entry Q279A) above, with T215A, A279Q counted along it
Description: as §1, §2
and expressed in CHO K1 cells.
as §3, §4, §5, §6, §7, §8, §9

[12] = system: SSTR2; details: cited from earlier work
[13] = target: SSTR2 (Homo sapiens, UniProt P30874, F272A); experiment: Whole cell binding assay, SSTR2, competition with 125I-Tyr11-SST14, CHO-K1; details: SSTR2 mutant F272^6.51A; mean ± SEM;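 also: Cell-bound radioactivity in lysed CHO-K1 cells read by scintillation counting, each mutation introduced singly into the WT receptor, at least three independent experiments run in technical triplicate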
Sequence of SSTR2 (Homo sapiens, UniProt P30874, F272A) (P30874 whole entry F272A): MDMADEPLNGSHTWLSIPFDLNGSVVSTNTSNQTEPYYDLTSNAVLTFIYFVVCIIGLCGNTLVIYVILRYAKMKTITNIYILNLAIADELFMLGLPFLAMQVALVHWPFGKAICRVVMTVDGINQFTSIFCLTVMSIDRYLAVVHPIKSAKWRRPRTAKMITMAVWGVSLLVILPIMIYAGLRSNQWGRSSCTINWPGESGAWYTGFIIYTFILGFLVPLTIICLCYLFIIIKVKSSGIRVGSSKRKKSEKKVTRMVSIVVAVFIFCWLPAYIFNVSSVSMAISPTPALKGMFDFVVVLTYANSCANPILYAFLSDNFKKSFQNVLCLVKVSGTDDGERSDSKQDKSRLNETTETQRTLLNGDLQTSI
Description: as §1, §2
and expressed in CHO K1 cells.
as §3, §4, §5, §6, §7, §8, §9

[14] = target: SSTR2 (Homo sapiens, UniProt P30874, T194A); experiment: as above; details: SSTR2 mutant T194^ECL2A; mean ± SEM
Sequence of SSTR2 (Homo sapiens, UniProt P30874, T194A) (P30874 whole entry T194A): as the sequence (P30874 whole entry F272A) above, with T194A, A272F counted along it
Description: as §1, §2
and expressed in CHO K1 cells.
as §3, §4, §5, §6, §7, §8, §9

[15] = target: SSTR2 (Homo sapiens, UniProt P30874, F275A); experiment: as above; details: SSTR2 mutant F275^6.54A; mean ± SEM
Sequence of SSTR2 (Homo sapiens, UniProt P30874, F275A) (P30874 whole entry F275A): as the sequence (P30874 whole entry F272A) above, with A272F, F275A counted along it
Description: as §1, §2
and expressed in CHO K1 cells.
as §3, §4, §5, §6, §7, §8, §9

[16] = target: SSTR2 (Homo sapiens, UniProt P30874, Y205A); experiment: as above; details: SSTR2 mutant Y205^5.35A; mean ± SEM
Sequence of SSTR2 (Homo sapiens, UniProt P30874, Y205A) (P30874 whole entry Y205A): as the sequence (P30874 whole entry F272A) above, with Y205A, A272F counted along it
Description: as §1, §2
and expressed in CHO K1 cells.
as §3, §4, §5, §6, §7, §8, §9

[17] = target: SSTR2 (Homo sapiens, UniProt P30874); experiment: as above; details: WT SSTR2, mean ± SEM
Sequence of SSTR2 (Homo sapiens, UniProt P30874) (P30874 whole entry): as the sequence (P30874 whole entry F272A) above, with A272F counted along it
Description: as §1, §2
and expressed in CHO K1 cells.
as §3, §4, §5, §6, §7, §8, §9

[18] = target: SSTR2 (Homo sapiens, UniProt P30874, F294A); experiment: as above; details: SSTR2 mutant F294^7.35A; mean ± SEM
Sequence of SSTR2 (Homo sapiens, UniProt P30874, F294A) (P30874 whole entry F294A): as the sequence (P30874 whole entry F272A) above, with A272F, F294A counted along it
Description: as §1, §2
and expressed in CHO K1 cells.
as §3, §4, §5, §6, §7, §8, §9

[19] = system: SSTR2; experiment: as above; details: for IC50 ratio: IC50(mutant)/IC50(WT)
Description: as §1, §2
and expressed in CHO K1 cells.
as §3, §4, §5, §6, §7, §8, §9

[20] = target: SSTR2 (Homo sapiens, UniProt P30874, Q102A); experiment: as above; details: SSTR2 mutant Q102^2.63A; mean ± SEM
Sequence of SSTR2 (Homo sapiens, UniProt P30874, Q102A) (P30874 whole entry Q102A): as the sequence (P30874 whole entry F272A) above, with Q102A, A272F counted along it
Description: as §1, §2
and expressed in CHO K1 cells.
as §3, §4, §5, §6, §7, §8, §9

[21] = target: SSTR2 (Homo sapiens, UniProt P30874, D122A); experiment: as above; details: SSTR2 mutant D122^3.32A; mean ± SEM
Sequence of SSTR2 (Homo sapiens, UniProt P30874, D122A) (P30874 whole entry D122A): as the sequence (P30874 whole entry F272A) above, with D122A, A272F counted along it
Description: as §1, §2
and expressed in CHO K1 cells.
as §3, §4, §5, §6, §7, §8, §9

[22] = target: SSTR2 (Homo sapiens, UniProt P30874, Q126A); experiment: as above; details: SSTR2 mutant Q126^3.36A; mean ± SEM
Sequence of SSTR2 (Homo sapiens, UniProt P30874, Q126A) (P30874 whole entry Q126A): as the sequence (P30874 whole entry F272A) above, with Q126A, A272F counted along it
Description: as §1, §2
and expressed in CHO K1 cells.
as §3, §4, §5, §6, §7, §8, §9

[23] = at least three independent experiments

- IC50 ratio ([1]; Construct 4 SSTR4): 0.5
- IC50 ratio ([1]; SSTR4 mutant Q279^6.55A): 2
- IC50 ratio ([1]; SSTR4 mutant T215^5.42A): 1
- IC50 ratio ([1]; WT SSTR4): 1
- pKi ± SEM ([2]; competition with 125I-SST-14): 9.47
- Span [2]: 96±9 % of WT
- pIC50 ± SEM [2]: 9.47±0.25
- Span [3]: 26±4 % of WT
- pIC50 ± SEM [3]: 8.93±0.38
- Span [4]: 15±5 % of WT
- Span [5]: 9±3 % of WT
- pKi ± SEM ([6]; competition with 125I-SST-14): 9.21 ± 0.14
- Span [6]: 100±6 % of WT
- pIC50 ± SEM [6, 23]: 9.21±0.14
- Span [7]: 11 ± 4 % of WT
- Span [8]: 12±4 % of WT
- Span [9]: 12±3 % of WT
- Span [10]: 13±3 % of WT
- Span [11]: 67±4 % of WT
- pIC50 ± SEM [11]: 9.08±0.16
Structure (SMILES): Cc1ccc(S(=O)(=O)N[C@@H](CCN)C(=O)N[C@@H](Cc2ccccc2)C(N)=O)c2ccccc12 [J-2156]

- Span [13]: 13±3 % of WT
- Span [14]: 22±6 % of WT
- pIC50 ± SEM [14]: 7.45±0.59
- Span [15]: 33±3 % of WT
- pIC50 ± SEM [15]: 7.57±0.23
- Span [16]: 70±5 % of WT
- pIC50 ± SEM [16]: 8.89±0.15
- pKi ± SEM ([17]; competition with 125I-SST-14): 8.53 ± 0.13
- Span [17]: 100±6 % of WT
- pIC50 ± SEM [17, 23]: 8.53±0.13
- Span [18]: 19±2 % of WT
- IC50 ratio ([19]; Construct 2 SSTR2): 3
- IC50 ratio ([19]; SSTR2 mutant F275^6.54A): 9
- IC50 ratio ([19]; SSTR2 mutant Q102^2.63A): 152
- IC50 ratio ([19]; SSTR2 mutant T194^ECL2A): 12
- IC50 ratio ([19]; SSTR2 mutant T212^5.42A): 1
- IC50 ratio ([19]; SSTR2 mutant Y205^5.35A): 0.4
- IC50 ratio ([19]; WT SSTR2): 1
- Span [20]: 20±5 % of WT
- pIC50 ± SEM [20]: 6.35±0.52
- Span [21]: 15±7 % of WT
- Span [22]: 15±5 % of WT
Structure (SMILES): C[C@@H](c1c[nH]c2ccccc12)[C@@H](NC(=O)N1CCC(n2c(=O)[nH]c3ccccc32)CC1)C(=O)N[C@@H](CCCCN)C(=O)OC(C)(C)C [L-054,522]
- selectivity for SSTR2 [12]: at least 3000 fold
- effect of construct modifications on binding and signaling ([19]; crystallization construct vs WT SSTR2): little effect on L-054,522 binding and signaling
